{"source": "patent US9492406B2", "about": "“Pharmaceutical composition” (IPCA Laboratories Limited, priority 2012, dated 2016)", "origin": "cited, not measured here", "key": {"[1]": {"test": "not given", "remark": "listed apart in the source"}, "[2]": {"conditions": "theophylline products of US2008248117"}}, "note": "Where two headings read alike, the source gives them in different places.", "data": [{"smiles": "O=C1C(O)=C([C@H]2CC[C@H](c3ccc(Cl)cc3)CC2)C(=O)c2ccccc21", "note": "[Atovaquone, trans-2-[4-(4-chlorophenyl)cyclohexyl]-3-hydroxy-1,4-naphthoquinone]", "values": [{"measurement": "bioavailability", "setting": "microfluidized microparticles supplied as suspension, with fat diet", "value": "46-48%"}, {"measurement": "bioavailability", "setting": "oral non-sized suspension", "value": "about 23%"}, {"measurement": "bioavailability", "setting": "oral non-sized suspension, under fat fed condition", "value": "46-48%"}, {"measurement": "bioavailability", "setting": "tablet formulations", "value": "~12", "unit": "%"}]}, {"smiles": "NC(=O)N1c2ccccc2C=Cc2ccccc21", "note": "[Carbamazepine crystals, Carbamazepine]", "values": [{"measurement": "Release after 15 min in %", "setting": "[1]; carbamazepine products of US2008248117, 15 min", "value": 22, "unit": "%"}, {"measurement": "Release after 30 min in %", "setting": "[1]; carbamazepine products of US2008248117, 30 min", "value": 53, "unit": "%"}]}, {"smiles": "Cn1c(=O)c2[nH]cnc2n(C)c1=O", "note": "[Theophylline crystals, Theophylline]", "values": [{"measurement": "Release after 15 min in %", "setting": "[1]; theophylline products of US2008248117, 15 min", "value": 34, "unit": "%"}, {"measurement": "Release after 30 min in %", "setting": "[1]; theophylline products of US2008248117, 30 min", "value": 78, "unit": "%"}, {"measurement": "Resistance to crushing", "setting": "[2]", "value": 140}]}]}
